For 32 molecules, IC50 and EC50 results are on record in patent US20240166643A1, “IMIDAZO[1,2-A]PYRIDINE COMPOUNDS AND THEIR USE IN THERAPY” (Imperial College Innovations Limited, priority 2020, published 2024).

Assay [1] has as its target Plasmodium vivax (Pv) NMT (Plasmodium vivax (strain Salvador I), UniProt A5K1A2). Description: biochemical.
The test system of assay [2] is Plasmodium falciparum 3D7. Description: SYBR Green assay, Plasmodium falciparum strain 3D7. It counts as cell-based. Particulars: P. falciparum strain 3D7, 96 h incubation, read-out: Pf EC50 strain 3D7.
Procedure: Assay (g): SYBR Green Assay
EC50 values for Plasmodium falciparum (Pf) NMT strain 3D7 or NF54 were measured for certain compounds of the invention using an assay utilising SYBR Green dye. The assay for NMT strain 3D7 was carried out as follows:
Synchronous Plasmodium falciparum 3D7 late stage trophozoites at 33-36 h were used. Final parasitemia and haematocrit were between 0.1-0.2% and 2% respectively. Red blood cells used for the assay were centrifuged to remove the buffy coat and washed twice in Roswell Park Memorial Institute (RPMI) Media 1640 so that no white blood cells were present. The culture medium contained RPMI 1640 with 5 g/L Albumax, 0.025 g/L gentamycin and 0.292 g/L L-glutamine.
Sterile 96 well black tissue culture plates (Costar) were used routinely for every assay. […] Chloroquine was used as a standard with ten times reduced concentrations range as above. Two sets of control were used in duplicate wells, one set with no added compound of the invention or standard (positive control) and one with uninfected red blood cells (negative control).
The plates were incubated at 37° C. for 48 h in a gas chamber flushed with 5% CO2, 5% O2 and 90% N2. After 48 h supernatants were taken out from each well and replaced with fresh drug and incubated for a further 48 h in the same manner. At the end of the 96 h incubation, 25 μL of SYBR Green I dye (SYBR Green I nucleic acid gel stain 10,000×, in DMSO from Invitrogen) in lysis buffer (1 μL dye to 1 mL lysis buffer) was added to each well and stored overnight at −20° C. The lysis buffer contained Tris (20 mM, pH 8.0), EDTA (2 mM), Saponin (0.16%) and Triton X-100 (1.6% v/v).
Plates were warmed to room temperature and fluorescence intensity was measured with a FLUOstar Omega Microplate fluorescence reader (BMG Labtech). Values were expressed in relative fluorescence units. Binding of SYBR Green is specific for parasite DNA as mature erythrocytes lack DNA and RNA. Fluorescence intensity unit was converted to percentage (%) of growth as follows:
% growth=(culture under drug)−(uninfected RBC)/(culture with no drug)−(uninfected RBC)×100
and the EC50 value was determined.
Another assay concerns the target Human NMT1 (HsNMT1) (Homo sapiens, UniProt P30419). Description: biochemical.

A word on the IC50: it is the concentration needed to halve the response being measured. For orientation: EC50 means the concentration needed to bring the measured effect to its halfway point.

Sequence of Plasmodium vivax (Pv) NMT (A5K1A2 1-410): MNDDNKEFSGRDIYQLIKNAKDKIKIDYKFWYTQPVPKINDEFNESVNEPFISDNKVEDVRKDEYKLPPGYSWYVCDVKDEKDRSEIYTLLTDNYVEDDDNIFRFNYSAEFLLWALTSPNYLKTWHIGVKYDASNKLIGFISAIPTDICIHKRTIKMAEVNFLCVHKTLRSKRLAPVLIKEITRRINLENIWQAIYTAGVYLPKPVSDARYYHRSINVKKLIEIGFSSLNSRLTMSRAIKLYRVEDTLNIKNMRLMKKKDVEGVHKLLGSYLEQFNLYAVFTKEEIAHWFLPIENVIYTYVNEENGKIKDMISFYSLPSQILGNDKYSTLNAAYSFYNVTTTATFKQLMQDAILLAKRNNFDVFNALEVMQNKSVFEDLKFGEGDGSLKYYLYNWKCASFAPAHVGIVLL
Sequence of Human NMT1 (HsNMT1) (P30419 whole entry, looked up): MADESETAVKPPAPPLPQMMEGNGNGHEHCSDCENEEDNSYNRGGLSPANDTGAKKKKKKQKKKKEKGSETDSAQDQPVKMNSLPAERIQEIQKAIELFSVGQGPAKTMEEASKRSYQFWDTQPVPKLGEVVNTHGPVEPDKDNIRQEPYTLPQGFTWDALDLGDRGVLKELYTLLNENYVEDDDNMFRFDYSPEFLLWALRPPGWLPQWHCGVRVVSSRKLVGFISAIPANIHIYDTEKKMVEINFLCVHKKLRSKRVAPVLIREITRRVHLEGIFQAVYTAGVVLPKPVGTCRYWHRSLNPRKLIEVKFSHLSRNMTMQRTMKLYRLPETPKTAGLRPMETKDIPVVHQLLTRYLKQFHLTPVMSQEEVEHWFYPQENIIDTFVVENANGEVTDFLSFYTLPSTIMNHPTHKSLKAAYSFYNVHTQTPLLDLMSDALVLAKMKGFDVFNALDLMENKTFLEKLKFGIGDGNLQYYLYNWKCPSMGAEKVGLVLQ

As for `C[C@@H]1CN(c2ncc(F)c(N3CC(C(=O)NC(C)(C)c4cnc5ccccn45)C3)n2)C[C@@H](C)N1C` [Example 93, 1-{5-fluoro-2-[(3R,5R)-3,4,5-trimethylpiperazin-1-yl]pyrimidin-4-yl}-N-(2-{imidazo[1,2-a]pyridin-3-yl}propan-2-yl)azetidine-3-carboxamide], the IC50 in assay [1] amounted to 59 nM; at Human NMT1 (HsNMT1), 250 nM. Moreover, the 50% effective concentration (EC50) in assay [2] amounted to 860 nM.
For the molecule `C[C@@H]1CN(c2cc(N3CC(C(=O)NC(C)(C)c4cnc5ccccn45)C3)c(Cl)cn2)CCN1C` [Example 103, 1-{5-chloro-2-[(3R)-3,4-dimethylpiperazin-1-yl]pyridin-4-yl}-N-(2-{imidazo[1,2-a]pyridin-3-yl}propan-2-yl)azetidine-3-carboxamide], the 50% effective concentration (EC50) in assay [2] was 5.3 nM.
Still for that read-out and setting: under `C[C@@H]1CN(c2cc(N3CC(C(=O)NC(C)(C)c4cnc5ccccn45)C3)c(F)cn2)CCN1C` [Example 104, 1-{2-[(3R)-3,4-dimethylpiperazin-1-yl]-5-fluoropyridin-4-yl}-N-(2-{imidazo[1,2-a]pyridin-3-yl}propan-2-yl)azetidine-3-carboxamide] stands 35 nM.
For the molecule `CC(C)(NC(=O)C1CN(c2nc(N3CCNCC3)ncc2F)C1)c1cnc2ccccn12` [Example 32], in assay [1], the half-maximal inhibitory concentration (IC50) worked out at 9.1 nM. For the same molecule, the EC50 in assay [2] came out at 64 nM.
The corresponding values for `C[C@H]1CN(c2ncc(F)c(N3CC(C(=O)NC(C)(C)c4cnc5ccccn45)C3)n2)CCN1` [Example 38] are 14 nM and 150 nM.
Turning to `CN(C(=O)C1CN(c2nc(N3CCCC(N)CC3)ncc2Cl)C1)C(C)(C)c1cnc2ccccn12` (stereo not shown) [Example 131, 1-(2-(4-aminoazepan-1-yl)-5-chloropyrimidin-4-yl)-N-(2-(imidazo[1,2-a]pyridin-3-yl)propan-2-yl)-N-methylazetidine-3-carboxamide], on Human NMT1 (HsNMT1), inhibition was half-maximal at 179 nM (IC50).
For the molecule `C[C@@H]1CN(c2ncc(F)c(N3CCC(C(=O)NC(C)(C)c4cnc5ccccn45)C3)n2)CCN1C` (stereo partly drawn) [Example 86, 1-{2-[(3R)-3,4-dimethylpiperazin-1-yl}-5-fluoropyrimidin-4-yl}-N-(2-{imidazo[1,2-a]pyridin-3-yl}propan-2-yl)pyrrolidine-3-carboxamide], the IC50 in assay [1] came out at 7 nM; against Human NMT1 (HsNMT1), 39 nM. In addition, the half-maximal effective concentration (EC50) in assay [2] was determined as 200 nM.
In the case of `C[C@H]1CN(C)CCN1c1ncc(Cl)c(N2CC(C(=O)N(C)Cc3cnc4ccccn34)C2)n1` [Example 106, 1-{5-chloro-2-[(2S)-2,4-dimethylpiperazin-1-yl]pyrimidin-4-yl}-N-{imidazo[1,2-a]pyridin-3-ylmethyl}-N-methylazetidine-3-carboxamide], the EC50 in assay [2] was greater than 1000 nM.
At Human NMT1 (HsNMT1), `CN(C(=O)C1CN(c2nc(N3CC4CC3CN4)ncc2Cl)C1)C(C)(C)c1cnc2ccccn12` (stereo not shown) [Example 132, 1-(2-(2,5-diazabicyclo[2.2.1]heptan-2-yl)-5-chloropyrimidin-4-yl)-N-(2-(imidazo[1,2-a]pyridin-3-yl)propan-2-yl)-N-methylazetidine-3-carboxamide] showed a 50% inhibitory concentration (IC50) of 190 nM.
In the case of `COc1cnc(N2C[C@@H](C)N(C)[C@H](C)C2)nc1N1CC(C(=O)NC(C)(C)c2cnc3ccccn23)C1` [Example 91, N-(2-{imidazo[1,2-a]pyridin-3-yl}propan-2-yl)-1-{5-methoxy-2-[(3R,5R)-3,4,5-trimethylpiperazin-1-yl]pyrimidin-4-yl}azetidine-3-carboxamide], in assay [2], the EC50 was determined as 230 nM.
Still for that read-out and setting: under `CC1CN(c2ncc(Cl)c(N3CC(C(=O)NC(C)(C)c4cnc5ccccn45)C3)n2)C[C@@H](C)N1` (stereo partly shown) [Example 46] stands 57 nM.
For the molecule `C[C@H]1CN(c2ncc(Cl)c(N3CC(C(=O)NC(C)(C)c4cnc5ccccn45)C3)n2)CCN1` [Example 37], the IC50 in assay [1] stood at 8.4 nM; on Human NMT1 (HsNMT1), 7.9 nM. Also, in assay [2], the EC50 was 27 nM.
In the case of `C[C@@H]1CN(c2ncc(Cl)c(N3CC(C(=O)NC(C)(C)c4cnc5ccccn45)C3)n2)[C@@H](C)CN1C` [Example 109, 1-{5-chloro-2-[(2S,5R)-2,4,5-trimethylpiperazin-1-yl]pyrimidin-4-yl}-N-(2-{imidazo[1,2-a]pyridin-3-yl}propan-2-yl)azetidine-3-carboxamide], the EC50 in assay [2] was determined as 120 nM.
For `COc1cnc(N2CCNCC2)nc1N1CC(C(=O)NC(C)(C)c2cnc3ccccn23)C1` [Example 34], the IC50 in assay [1] was found to be 9.1 nM. The concentration for a half-maximal effect (EC50) in assay [2] is 140 nM.
For the molecule `C[C@@H]1CN(C)CCN1c1ncc(Cl)c(N2CC(C(=O)NC(C)(C)c3cnc4ccccn34)C2)n1` [Example 68], the values for the IC50 (in assay [1]; at Human NMT1 (HsNMT1)) were 32 nM and 88 nM, respectively. Also, the EC50 in assay [2] is 74 nM.
The corresponding values for `CN1CCN(c2ncc(F)c(N3CCC(C(=O)NC(C)(C)c4cnc5ccccn45)C3)n2)CC1` (stereo not shown) [Example 64] are 20 nM, 190 nM and 850 nM.
As for `C[C@H]1CN(c2ncc(Cl)c(N3CC(C(=O)NC(C)(C)c4cnc5ccccn45)C3)n2)CCN1C` [Example 83, 1-{5-chloro-2-[(3S)-3,4-dimethylpiperazin-1-yl]pyrimidin-4-yl}-N-(2-{imidazo[1,2-a]pyridin-3-yl}propan-2-yl)azetidine-3-carboxamide], in assay [1], inhibition was half-maximal at 10 nM (IC50). Moreover, the EC50 in assay [2] came out at 150 nM.
The molecule `C[C@H]1CN(c2ncc(Cl)c(N3CC(C(=O)N(C)C(C)(C)c4cnc5ccccn45)C3)n2)CCN1C` [Example 140, (S)-1-(5-chloro-2-(3,4-dimethylpiperazin-1-yl)pyrimidin-4-yl)-N-(2-(imidazo[1,2-a]pyridin-3-yl)propan-2-yl)-N-methylazetidine-3-carboxamide] had a half-maximal inhibitory concentration (IC50) against Human NMT1 (HsNMT1) of 146 nM.
Turning to `Cc1ccc2ncc(C(C)(C)NC(=O)C3CN(c4nc(N5CCN(C)[C@H](C)C5)ncc4Cl)C3)n2c1` [Example 98, 1-{5-chloro-2-[(3R)-3,4-dimethylpiperazin-1-yl]pyrimidin-4-yl}-N-(2-{6-methylimidazo[1,2-a]pyridin-3-yl}propan-2-yl)azetidine-3-carboxamide], the 50% inhibitory concentration (IC50) was found to be 5.8 nM in assay [1] and 5.4 nM against Human NMT1 (HsNMT1). The concentration for a half-maximal effect (EC50) in assay [2] was 7 nM.
With `CC1NCCN(c2ncc(Cl)c(N3CC(C(=O)NC(C)(C)c4cnc5ccccn45)C3)n2)C1C` (stereo not shown) [Example 79], the EC50 in assay [2] was 2.2 nM.
On the same count and under the same terms, under `CN1CCN(c2cc(N3CC(C(=O)NC(C)(C)c4cnc5ccccn45)C3)c(Cl)cn2)CC1` [Example 105, 1-[5-chloro-2-(4-methylpiperazin-1-yl)pyridin-4-yl]-N-(2-{imidazo[1,2-a]pyridin-3-yl}propan-2-yl)azetidine-3-carboxamide] stands 18 nM.
Consider `CN(c1ncc(F)c(N2CC(C(=O)NC(C)(C)c3cnc4ccccn34)C2)n1)C1CCNC1` (stereo not shown) [Example 40], for which the results for the IC50 (in assay [1]; at Human NMT1 (HsNMT1)) were 18 nM and 160 nM, respectively. Also, the EC50 in assay [2] amounted to 250 nM.
For the molecule `COc1cnc(N2C[C@H](C)N(C)[C@@H](C)C2)nc1N1CC(C(=O)NC(C)(C)c2cnc3ccccn23)C1` [Example 94, N-(2-{imidazo[1,2-a]pyridin-3-yl}propan-2-yl)-1-{5-methoxy-2-[(3S,5S)-3,4,5-trimethylpiperazin-1-yl]pyrimidin-4-yl}azetidine-3-carboxamide], the concentration giving a half-maximal response (EC50) in assay [2] was found to be 440 nM.
Regarding `O=C(NCc1cnc2cc(F)ccn12)C1CN(c2nc(N3CCCNCC3)ncc2Cl)C1` [Example 21], the IC50 in assay [1] turned out to be 17 nM; at Human NMT1 (HsNMT1), 50 nM. Moreover, the EC50 in assay [2] turned out to be 800 nM.
Consider `C[C@@H]1CN(c2ncc(F)c(N3CC(C(=O)NC(C)(C)c4cnc5ccccn45)C3)n2)[C@@H](C)CN1C` [Example 111, 1-{5-fluoro-2-[(2S,5R)-2,4,5-trimethylpiperazin-1-yl]pyrimidin-4-yl}-N-(2-{imidazo[1,2-a]pyridin-3-yl}propan-2-yl)azetidine-3-carboxamide], for which the EC50 in assay [2] was 450 nM.
In the case of `CC1CN(c2ncc(F)c(N3CC(C(=O)NC(C)(C)c4cnc5ccccn45)C3)n2)C[C@H](C)N1` (stereo partly shown) [Example 49], the concentration for half-maximal inhibition (IC50) in assay [1] turned out to be 8.4 nM; on Human NMT1 (HsNMT1), 14 nM. In addition, in assay [2], the EC50 worked out at 57 nM.
The like results for `C[C@@H]1CN(c2ncc(F)c(N3CC(C)(C(=O)NC(C)(C)c4cnc5ccccn45)C3)n2)CCN1C` [Example 87, 1-{2-[(3R)-3,4-dimethylpiperazin-1-yl]-5-fluoropyrimidin-4-yl}-N-(2-{imidazo[1,2-a]pyridin-3-yl}propan-2-yl)-3-methylazetidine-3-carboxamide] were, in that order, 38 nM, 150 nM and greater than 760 nM.
Turning to `COc1cnc(N2CCN(C)CC2)nc1N1CC(C(=O)NC(C)(C)c2cnc3ccccn23)C1` [Example 63], the 50% inhibitory concentration (IC50) in assay [1] was found to be 71 nM. The EC50 in assay [2] was found to be 180 nM.
Turning to `C[C@@H]1CN(c2ncc(Cl)c(N3CC(C(=O)NC(C)(C)c4cnc5ccccn45)C3)n2)[C@H](C)CN1C` [Example 110, 1-{5-chloro-2-[(2R,5R)-2,4,5-trimethylpiperazin-1-yl]pyrimidin-4-yl}-N-(2-{imidazo[1,2-a]pyridin-3-yl}propan-2-yl)azetidine-3-carboxamide], in assay [2], the EC50 was 66 nM.
`CC(C)(NC(=O)C1CN(c2nc(N3CCCNCC3)nc3ccsc23)C1)c1cnc2ccccn12` [Example 123, 1-(2-(1,4-diazepan-1-yl)thieno[3,2-d]pyrimidin-4-yl)-N-(2-(Imidazo[1,2-a]pyridin-3-yl)propan-2-yl)azetidine-3-carboxamide]: at Human NMT1 (HsNMT1), the IC50 was found to be 8 nM.
As for `O=C(NCc1cnc2ccccn12)C1CN(c2nc(N3CCCNCC3)ncc2Cl)C1` [Example 5], it took 14 nM to reach half-maximal inhibition in assay [1] (IC50). Besides, in assay [2], the EC50 came to 2500 nM.
For `CN(C(=O)C1CN(c2nc(N3CCC(N)CC3)ncc2Cl)C1)C(C)(C)c1cnc2ccccn12` [Example 128, 1-(2-(4-aminopiperidin-1-yl)-5-chloropyrimidin-4-yl)-N-(2-(Imidazo[1,2-a]pyridin-3-yl)propan-2-yl)-N-methylazetidine-3-carboxamide], at Human NMT1 (HsNMT1), the half-maximal inhibitory concentration (IC50) was determined as 234 nM.
